{"source": "patent US11723898B2", "about": "“Androgen receptor inhibitors for the treatment of non-metastatic castration-resistant prostate cancer in subjects with severe hepatic impairment” (Aragon Pharmaceuticals, Inc., priority 2019, dated 2023)", "key": {"T877A AR mutant": {"biological_target": "T1, T877A AR mutant (Homo sapiens, UniProt P10275, T878A)", "T1 sequence (P10275 1-920 T878A)": "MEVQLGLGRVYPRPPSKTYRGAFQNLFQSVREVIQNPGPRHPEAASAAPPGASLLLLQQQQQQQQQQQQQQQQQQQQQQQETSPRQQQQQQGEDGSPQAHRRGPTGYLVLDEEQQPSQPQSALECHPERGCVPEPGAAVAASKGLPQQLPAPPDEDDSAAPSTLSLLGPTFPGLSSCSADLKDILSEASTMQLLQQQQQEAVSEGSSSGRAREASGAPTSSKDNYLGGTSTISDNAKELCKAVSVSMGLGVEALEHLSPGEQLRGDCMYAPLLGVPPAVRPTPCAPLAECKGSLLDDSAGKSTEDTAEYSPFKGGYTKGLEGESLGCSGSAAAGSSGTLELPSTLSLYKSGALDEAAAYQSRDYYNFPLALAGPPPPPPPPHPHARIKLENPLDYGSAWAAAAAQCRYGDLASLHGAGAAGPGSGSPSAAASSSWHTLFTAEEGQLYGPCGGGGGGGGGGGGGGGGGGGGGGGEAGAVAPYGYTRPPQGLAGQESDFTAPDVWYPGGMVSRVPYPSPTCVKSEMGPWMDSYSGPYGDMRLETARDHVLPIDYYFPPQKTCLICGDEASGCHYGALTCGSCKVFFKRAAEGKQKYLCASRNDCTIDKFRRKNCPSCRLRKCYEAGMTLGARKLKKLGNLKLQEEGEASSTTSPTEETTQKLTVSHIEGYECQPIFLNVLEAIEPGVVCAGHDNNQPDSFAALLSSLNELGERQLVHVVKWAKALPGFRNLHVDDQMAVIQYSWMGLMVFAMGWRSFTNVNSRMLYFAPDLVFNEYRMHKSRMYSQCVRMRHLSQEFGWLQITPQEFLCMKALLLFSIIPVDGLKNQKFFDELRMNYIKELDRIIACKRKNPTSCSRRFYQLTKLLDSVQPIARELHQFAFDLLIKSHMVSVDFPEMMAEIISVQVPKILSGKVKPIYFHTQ", "settings": "cited from earlier work"}, "AR": {"biological_target": "AR (Homo sapiens, UniProt P10275)", "sequence (P10275 whole entry)": "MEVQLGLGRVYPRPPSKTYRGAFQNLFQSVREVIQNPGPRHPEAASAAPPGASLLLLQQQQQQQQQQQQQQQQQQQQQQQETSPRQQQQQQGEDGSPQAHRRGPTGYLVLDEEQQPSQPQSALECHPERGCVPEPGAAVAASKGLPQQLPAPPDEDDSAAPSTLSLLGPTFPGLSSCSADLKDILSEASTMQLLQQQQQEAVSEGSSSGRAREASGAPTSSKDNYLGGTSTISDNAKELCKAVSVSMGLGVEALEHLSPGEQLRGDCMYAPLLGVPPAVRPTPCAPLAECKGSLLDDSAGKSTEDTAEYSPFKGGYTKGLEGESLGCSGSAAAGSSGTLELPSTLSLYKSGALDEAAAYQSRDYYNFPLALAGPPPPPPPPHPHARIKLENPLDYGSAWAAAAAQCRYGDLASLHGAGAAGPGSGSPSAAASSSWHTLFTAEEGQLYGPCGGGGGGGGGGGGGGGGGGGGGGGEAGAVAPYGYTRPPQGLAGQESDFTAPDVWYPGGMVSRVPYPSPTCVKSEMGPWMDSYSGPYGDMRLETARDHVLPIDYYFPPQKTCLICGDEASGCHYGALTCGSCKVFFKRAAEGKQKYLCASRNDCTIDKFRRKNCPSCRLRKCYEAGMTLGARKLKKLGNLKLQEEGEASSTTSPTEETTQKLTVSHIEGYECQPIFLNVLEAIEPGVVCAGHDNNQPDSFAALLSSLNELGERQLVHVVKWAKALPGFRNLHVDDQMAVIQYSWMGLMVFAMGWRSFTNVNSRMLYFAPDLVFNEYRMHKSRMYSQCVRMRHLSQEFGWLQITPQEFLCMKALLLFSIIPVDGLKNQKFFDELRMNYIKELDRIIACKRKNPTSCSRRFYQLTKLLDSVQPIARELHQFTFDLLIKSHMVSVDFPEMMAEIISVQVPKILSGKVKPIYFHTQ", "settings": "cited from earlier work"}, "[1]": {"assay": "pharmacokinetic study data, subjects with mild and moderate hepatic impairment versus healthy controls", "format": "in vivo, human"}, "[2]": {"tested_on": "non-castrate hormone-sensitive and bicalutamide-resistant human prostate cancer xenograft models", "settings": "cited from earlier work"}}}
{"smiles": "CC(C)(O)C(=O)Nc1ccc([N+](=O)[O-])c(C(F)(F)F)c1", "note": "[hydroxyflutamide]", "values": [{"measurement": "agonist activity", "setting": "T877A AR mutant", "value": "act as AR agonists"}]}
{"smiles": "CC(O)c1cc(C(=O)N[C@@H](C)Cn2ccc(-c3ccc(C#N)c(Cl)c3)n2)n[nH]1", "note": "(stereo partly drawn) [Darolutamide, N-{(2S)-1-[3-(3-chloro-4-cyanophenyl)-1H-pyrazol-1-yl]propan-2-yl}-5-(1-hydroxyethyl)-1H-pyrazole-3-carboxamide]", "values": [{"measurement": "binding affinity for AR", "setting": "AR", "value": "high affinity"}]}
{"smiles": "CNC(=O)c1ccc(N2C(=S)N(c3cnc(C#N)c(C(F)(F)F)c3)C(=O)C23CCC3)cc1F", "note": "[apalutamide, 4-[7-(6-cyano-5-trifluoromethylpyridin-3-yl)-8-oxo-6-thioxo-5,7-diazaspiro[3.4]oct-5-yl]-2-fluoro-N-methylbenzamide]", "values": [{"measurement": "total coefficient of variation (CV) for AUCs (AUClast and AUC∞)", "setting": "[1]", "value": "≤ 27", "unit": "%"}, {"measurement": "total coefficient of variation (CV) for Cmax", "setting": "[1]", "value": "≤ 35", "unit": "%"}, {"measurement": "tumor regression", "setting": "[2]", "value": "partial or complete tumor regression"}]}
